# Patent US7282489B2, “Compositions and methods for performing reverse gene therapy” (The Children's Hospital of Philadelphia, priority 2000, dated 2007)
# What was measured:
# [1] = biological target: T1, Q9E-hMiRP1 channels (Homo sapiens, UniProt Q12809+Q9Y6J6, Q9E); settings: patch clamp studies, Abbott et al, 1999; cited from earlier work
# T1 construct: expressed in transfected cells; host or cells: HEK293 stably expressing HERG, stably co-transfected with pIRES2-EGFP-Q9E-hMiRP1-FLAG
# [2] = biological target: T2, Q9E-hMiRP1 channels (Homo sapiens, UniProt Q12809); assay: Whole cell voltage clamp, HEK293 cells stably expressing HERG and Q9E-hMiRP1; assay type: cell-based; settings: HEK293 cells overexpressing Q9E-hMiRP1, activation at +20 mV; read-out: Dose leading to half blockade of peak outward currents
# T2 construct: expressed in transfected cells; host or cells: HEK293 stably expressing HERG, stably co-transfected with pIRES2-EGFP-Q9E-hMiRP1-FLAG
# Method: (§1) Electrophysiology Methods: HEK293 cells that stably express HERG, but not hMiRP1 (Zhou, et al., 1999) were also stably co-transfected with either hMiRP1 or Q9E-hMiRP1 and subsequently were analyzed for channel function by single cell patch clamping using voltage clamp conditions. The data were analyzed at a sampling rate of 4 kHz and filtered at 1 kHz using Pclamp software version 6.0 (Axon Instruments, Foster City, Calif.). Leak correction was not performed, and therefore unaltered data are shown. All experiments were performed at 25° C. Protocols for steady-state activation and isochronal peak currents, and clarithromycin incubations were performed as described by Abbott et al., 1999. Initial studies were performed in buffer containing 95 mM KCl, 5 mM NaCl, 1 mM MgCl2, 0.3 mM CaCl2, and 10 mM HEPES (pH 7.6). For whole cell recordings, pipettes contained 100 mM KCl, 1 mM MgCl2, 10 mM HEPES, and 2 mM EGTA (pH 7.5). A 50 mM Clarithromycin (American Bioanalytical, Natick, Mass.) stock in DMSO was diluted in bath solution.
# [3] = biological target: T1, Q9E-hMiRP1 channels; assay: as above; assay type: cell-based
# Method: as §1
# [4] = biological target: T3, channels formed with wild-type hMiRP1 (Homo sapiens, UniProt Q12809); assay: Whole cell voltage clamp, HEK293 cells stably expressing HERG and wild type hMiRP1; assay type: cell-based; settings: wild-type hMiRP1, activation at +20 mV, read-out: Dose causing half block of the peak outward currents
# T3 construct: expressed in transfected cells; host or cells: HEK293 stably expressing HERG, stably co-transfected with pIRES2-EGFP-hMiRP1-FLAG
# Method: as §1
# [5] = system: re-entrant atrial flutter; assay: Y-atriotomy model for re-entrant atrial flutter, burst atrial pacing; assay type: in vivo, dog; settings: dogs systemically administered a dose of ibutilide equivalent to that provided by the polymer
# T1 sequence (Q12809 whole entry): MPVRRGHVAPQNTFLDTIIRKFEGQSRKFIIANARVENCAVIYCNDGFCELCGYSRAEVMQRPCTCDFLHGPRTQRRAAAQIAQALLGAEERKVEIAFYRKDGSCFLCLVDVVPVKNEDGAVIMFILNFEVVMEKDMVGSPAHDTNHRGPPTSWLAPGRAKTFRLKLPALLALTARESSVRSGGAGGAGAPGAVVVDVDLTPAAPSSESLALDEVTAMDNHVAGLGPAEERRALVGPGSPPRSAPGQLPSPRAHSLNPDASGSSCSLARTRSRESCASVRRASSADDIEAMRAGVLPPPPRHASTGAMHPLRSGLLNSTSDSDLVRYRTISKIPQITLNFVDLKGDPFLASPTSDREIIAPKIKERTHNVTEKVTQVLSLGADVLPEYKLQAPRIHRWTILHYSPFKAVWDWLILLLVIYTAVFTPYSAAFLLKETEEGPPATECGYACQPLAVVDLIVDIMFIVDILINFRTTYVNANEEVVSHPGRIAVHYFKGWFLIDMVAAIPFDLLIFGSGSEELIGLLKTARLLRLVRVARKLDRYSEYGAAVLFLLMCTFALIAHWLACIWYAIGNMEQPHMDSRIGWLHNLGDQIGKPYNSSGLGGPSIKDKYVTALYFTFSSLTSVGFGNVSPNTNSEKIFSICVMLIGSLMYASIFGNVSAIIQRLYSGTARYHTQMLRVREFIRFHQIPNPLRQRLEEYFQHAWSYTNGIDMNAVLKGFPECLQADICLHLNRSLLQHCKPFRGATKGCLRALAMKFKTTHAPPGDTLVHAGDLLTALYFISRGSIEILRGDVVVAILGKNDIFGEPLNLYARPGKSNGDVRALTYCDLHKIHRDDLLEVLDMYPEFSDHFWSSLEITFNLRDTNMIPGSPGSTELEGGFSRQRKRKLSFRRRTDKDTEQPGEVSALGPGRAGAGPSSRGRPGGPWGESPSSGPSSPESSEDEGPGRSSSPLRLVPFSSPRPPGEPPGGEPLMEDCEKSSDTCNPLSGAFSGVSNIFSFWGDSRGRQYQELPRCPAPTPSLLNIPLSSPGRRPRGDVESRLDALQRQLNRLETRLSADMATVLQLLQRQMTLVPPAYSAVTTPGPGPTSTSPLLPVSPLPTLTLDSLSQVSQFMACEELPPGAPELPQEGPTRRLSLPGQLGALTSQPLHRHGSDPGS
# T1 sequence (Q9Y6J6 whole entry Q9E): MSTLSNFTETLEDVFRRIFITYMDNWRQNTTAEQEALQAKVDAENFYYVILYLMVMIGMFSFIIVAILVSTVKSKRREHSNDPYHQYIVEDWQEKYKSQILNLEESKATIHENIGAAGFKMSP
# T2 sequence (Q12809 whole entry): as the sequence (Q12809 whole entry) above
# T2 sequence (Q9Y6J6 whole entry Q9E, further chain): as the sequence (Q9Y6J6 whole entry Q9E) above
# T3 sequence (Q12809 whole entry): as the sequence (Q12809 whole entry) above
# T3 sequence (Q9Y6J6 whole entry, further chain): as the sequence (Q9Y6J6 whole entry Q9E) above, with E9Q counted along it
Structure (SMILES),Sensitivity of Q9E-hMiRP1 channels to clarithromycin induced diminution of potassium currents relative to wild type [1] [fold],IC50 [2] [mM],"Effect on I/I max with increased voltages ([3]; 1.0 mM clarithromycin, Q9E-hMiRP1 stable cells, groups of 4 cells)",Clarithromycin effect in Q9E-hMiRP1 cells relative to wild type hMiRP1 cells ([3]; HEK293 cells),"Effect on peak outward currents ([3]; HEK293 cells over-expressing Q9E-hMiRP1, whole cell voltage clamp)",IC50 [4] [mM],Inhibition of inducibility of atrial flutter [5]
"CC[C@H]1OC(=O)[C@H](C)[C@@H](O[C@H]2C[C@@](C)(OC)[C@@H](O)[C@H](C)O2)[C@H](C)[C@@H](O[C@@H]2O[C@H](C)C[C@H](N(C)C)[C@H]2O)[C@](C)(OC)C[C@@H](C)C(=O)[C@H](C)[C@@H](O)[C@]1(C)O [clarithromycin, Clarithromycin]",3,< 1,blocked increases in I/I max with increased voltages,many-fold greater,reduced peak outward currents,~2,
"CCCCCCCN(CC)CCCC(O)c1ccc(NS(C)(=O)=O)cc1 (stereo not shown) [ibutilide, Ibutilide]",,,,,,,No significant inhibition
